Results taken from US11591604B2, “Gene expression in Bacteroides” (Massachusetts Institute of Technology, priority 2015, dated 2023).

System: NanoLuc
Assay: NanoLuc luciferase reporter expression from constitutive promoters and RBSs integrated with pNBU2
Format: cell-based, B. thetaiotaomicron
Conditions: RBS combined with promoter PBT1311, NanoLuc reporter, three biological replicates
Text: FIGS. 1A-1G. Genetic parts to control expression in B. thetaiotaomicron. (FIG. 1A) The ranges of gene expression are shown for the different gene regulation systems provided herein. (FIG. 1B) IntN2 catalyzes stable integration of pNBU2-based expression constructs into one of two attBT2 sites in the B. thetaiotaomicron genome. The two attBT2 sites (attBT2-1 at nucleotide (nt) 6,217,227 and attBT2-2 at nt 6,138,320) are in the 3′ ends of tRNA^Ser genes (BT_t71 and BT_t70, respectively). (FIG. 1C) Constitutive promoters and ribosome binding sites for the construction of gene expression libraries. The putative −33 and −7 regions of the PBT1311 promoter, the Shine-Delgarno sequence, and the start codon are indicated by black boxes. Numbers below the black boxes represent nucleotide locations relative the PBT1311 transcription start site. The 26 nt sequences introduced in the PAM promoters are shown (see also FIGS. 6A-6B). Numbers at the edges of the boxes indicate the PBT1311 nucleotides replaced or the insertion site within the promoter. The location of residues randomized in the rpiL* RBS library are indicated with gray arrows (for library A: nt −14, −13, −12; for library B: nt −21, −18, −15; and for library C: nt −17, −16, −11; nt numbering is relative to the translation start site). (FIG. 1D) Activity was measured for a set of constitutive promoters and their cognate RBSs. Furthermore, a set of constitutive promoters (PBT1311, PAM1, PAM2, PAM3, PAM4) was combined with RBSs of varying strengths. Gene expression was measured using a luciferase reporter (NanoLuc). (FIG. 1E) Three large RBS libraries were constructed and combined with promoter PBT1311 to span 10^3-fold in gene expression. For reference, the parent rpiL* RBS is indicated with a black arrow. For D and E, error bars represent the standard deviation of three independent biological replicates made on separate days. (FIG. 1F) The strength of each RBS was compared to the predicted free energy of folding for the mRNA (ΔGfold,). (FIG. 1G) Strong (SEQ ID NO: 210) and weak (SEQ ID NO: 211) consensus sequences for the rpiL* −21 to −11 RBS region targeted by mutagenesis (residue locations are stated relative to the translation start site) are provided. Frequency logos were generated for the 11 strongest and 11 weakest RBSs by comparing the frequency of each nucleotide at each position in that group with the frequency of that nucleotide in that position in the full library. Position −20 and −19 were not randomized and are thus are not shown in the frequency logos.
All genetic parts in this study were characterized using the integration vector pNBU2 to ensure genetic stability of the constructs (FIG. 1B). The pNBU2 plasmid encodes the intN2 tyrosine integrase, which mediates sequence-specific recombination between the attN site of pNBU2 and one of two attBT sites located in the 3′ ends of the two tRNA^Ser genes, BT_t70 and BT_t71, on the B. thetaiotaomicron chromosome (FIG. 1B). Insertion of the pNBU2 plasmid inactivates the tRNA^Ser gene, and simultaneous insertion into both BT_t70 and BT_t71 is unlikely due to the essentiality of tRNA^Ser. pNBU2-based vectors have been used for single-copy complementation in B. thetaiotaomicron in in vitro studies (Koropatkin N M et al. Nat. Rev. Microbiol. 10:323-35, 2012) and in vivo mouse models (Martens E C et al. Cell Host Microbe 4:447-57, 2008).
B. thetaiotaomicron genetic parts were characterized with NanoLuc luciferase (Hall M P et al. ACS Chem. Biol. 7:1848-1857, 2012), which is a small (19 kDa) modified shrimp luciferase. Efforts to use members of the green fluorescent protein family and a FMN-based fluorescent reporter were not successful. NanoLuc oxidizes the exogenously-added substrate furimazine to produce glow-type bioluminescence (Emax=460 nm) with a signal half-life of 2 hr. […]

Row | Substance | Average Luminescence (RLU/CFU)
1 | A39: RBS, SEQ ID NO: 116 (DNA TCCCGCATTTTAAAATAAAATAAATTATTGTTTTATTTAAACGAAT; chemistry not fully specified) | 0.003302
2 | A40: RBS, SEQ ID NO: 118 (DNA TCCCGCATTTTAAAATAAAATAAATTATTTGTTTATTTAAACGAAT; chemistry not fully specified) | 0.002992
3 | A41: RBS, SEQ ID NO: 123 (DNA TCCCGCATTTTAAAATAAAATAAATTATTATTTTATTTAAACGAAT; chemistry not fully specified) | 0.002417
4 | A42: RBS, SEQ ID NO: 130 (DNA TCCCGCATTTTAAAATAAAATAAATTATTGGTTTACTTAAACGAAT; chemistry not fully specified) | 0.001478
5 | A43: RBS, SEQ ID NO: 131 (DNA TCCCGCATTTTAAAATAAAATAAATTATTCGTTTAATTAAACGAAT; chemistry not fully specified) | 0.001461
6 | A44: RBS, SEQ ID NO: 135 (DNA TCCCGCATTTTAAAATAAAATAAATTATTCGTTTATTTAAACGAAT; chemistry not fully specified) | 0.0006478
7 | A45: RBS, SEQ ID NO: 137 (DNA TCCCGCATTTTAAAATAAAATAAATTATTCGTTTACTTAAACGAAT; chemistry not fully specified) | 0.0005331
8 | B1: RBS, SEQ ID NO: 1 (DNA TCCCGCATTTTAAAATAAAATAAATTATTCGTTTAGTTAAACGAAT; chemistry not fully specified) | 0.09025
9 | B2: RBS, SEQ ID NO: 2 (DNA TCCCGCATTTTAAAATAAAATAAATGATATAATTAATTAAACGAAT; chemistry not fully specified) | 0.06325
10 | B3: RBS, SEQ ID NO: 3 (DNA TCCCGCATTTTAAAATAAAATAAATAATATAATTAATTAAACGAAT; chemistry not fully specified) | 0.06083
11 | B4: RBS, SEQ ID NO: 4 (DNA TCCCGCATTTTAAAATAAAATAAATAATTTAATTAATTAAACGAAT; chemistry not fully specified) | 0.05153
12 | B5: RBS, SEQ ID NO: 5 (DNA TCCCGCATTTTAAAATAAAATAAATTATATAATTAATTAAACGAAT; chemistry not fully specified) | 0.04825
13 | B6: RBS, SEQ ID NO: 6 (DNA TCCCGCATTTTAAAATAAAATAAATAATATACTTAATTAAACGAAT; chemistry not fully specified) | 0.04723
14 | B7: RBS, SEQ ID NO: 8 (DNA TCCCGCATTTTAAAATAAAATAAATAATCTACTTAATTAAACGAAT; chemistry not fully specified) | 0.04704
15 | B8: RBS, SEQ ID NO: 9 (DNA TCCCGCATTTTAAAATAAAATAAATTATTTAATTAATTAAACGAAT; chemistry not fully specified) | 0.04684
16 | B9: RBS, SEQ ID NO: 10 (DNA TCCCGCATTTTAAAATAAAATAAATTATCTAATTAATTAAACGAAT; chemistry not fully specified) | 0.04634
17 | B10: RBS, SEQ ID NO: 12 (DNA TCCCGCATTTTAAAATAAAATAAATTATATATTTAATTAAACGAAT; chemistry not fully specified) | 0.04421
18 | B11: RBS, SEQ ID NO: 18 (DNA TCCCGCATTTTAAAATAAAATAAATAATGTAATTAATTAAACGAAT; chemistry not fully specified) | 0.03308
19 | B12: RBS, SEQ ID NO: 22 (DNA TCCCGCATTTTAAAATAAAATAAATAATATATTTAATTAAACGAAT; chemistry not fully specified) | 0.03108

Same assay, conditions: set of 8 RBSs, under control of PBT1311, NanoLuc reporter

Row | Substance | Expression Level (RLU/CFU)
20 | B1: RBS, SEQ ID NO: 1 (DNA TCCCGCATTTTAAAATAAAATAAATTATTCGTTTAGTTAAACGAAT; chemistry not fully specified) | 9.02E-02
